Results on seven compounds are retold here after patent EP4711362A1, “LIGAND TARGETING FIBROBLAST ACTIVATION PROTEIN” (Jiangsu Hengrui Pharmaceuticals Co., Ltd., priority 2023, dated 2024).

One data set has as its target T1, FAPα enzyme (Homo sapiens, UniProt Q12884).
T1 sequence (Q12884 1-760): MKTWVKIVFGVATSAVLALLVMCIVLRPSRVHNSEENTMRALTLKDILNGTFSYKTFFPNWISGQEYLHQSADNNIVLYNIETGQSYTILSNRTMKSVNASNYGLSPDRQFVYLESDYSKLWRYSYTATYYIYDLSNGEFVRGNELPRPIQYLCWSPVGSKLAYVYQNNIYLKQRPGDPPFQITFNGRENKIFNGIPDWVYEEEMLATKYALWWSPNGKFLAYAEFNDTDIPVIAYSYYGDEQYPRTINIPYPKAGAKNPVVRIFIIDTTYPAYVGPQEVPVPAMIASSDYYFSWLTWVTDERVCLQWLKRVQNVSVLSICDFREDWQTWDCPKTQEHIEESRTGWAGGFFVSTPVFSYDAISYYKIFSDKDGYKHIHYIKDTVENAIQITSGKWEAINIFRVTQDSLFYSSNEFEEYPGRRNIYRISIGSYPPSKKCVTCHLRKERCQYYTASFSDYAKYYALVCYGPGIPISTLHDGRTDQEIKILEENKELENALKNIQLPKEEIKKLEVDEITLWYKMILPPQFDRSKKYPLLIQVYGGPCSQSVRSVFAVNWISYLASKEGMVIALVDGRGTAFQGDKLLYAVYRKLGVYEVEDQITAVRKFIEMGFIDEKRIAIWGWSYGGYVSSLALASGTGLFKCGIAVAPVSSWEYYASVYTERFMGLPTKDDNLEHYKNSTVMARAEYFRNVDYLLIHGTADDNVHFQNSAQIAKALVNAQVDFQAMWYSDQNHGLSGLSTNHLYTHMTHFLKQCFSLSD
The data set is described as follows: FAPα enzyme activity test (Z-Gly-Pro-AMC substrate, fluorescence). It counts as biochemical. Conditions: for inhibition at 0.1 µM: read-out: Inhibition rate 100 nM; for IC50 value against FAPα enzyme, times that of the positive drug FAPI-04: relative to FAPI-04. How it is done: The substrate (Z-Gly-Pro-AMC) was diluted with DMSO to prepare a 0.5 mM stock solution. Before each experiment, the 0.5 mM stock solution was diluted with PBS to 50 µM for later use. The FAPα protein was diluted with PBS to 0.5 ng/µl for later use. The test compounds and positive control were diluted with PBS to a concentration of 100 nM or 200 nM for the determination of single-point inhibition rate. […] The test compounds and positive control were subjected to a 5-fold serial dilution with PBS to obtain 8 gradients for later use, with the highest concentration being 10 µM, and the lowest concentration being […]. Test method: 85 µl of the FAPα dilution and 10 µl of the compound dilution were added to a microplate, uniformly mixed and incubated at 37°C for 10 min. Then, 5 µL of 50 µM substrate was added, uniformly mixed and incubated at 37°C for 10 min. The microplate was read on a microplate reader, with an excitation wavelength of 380 nm and an emission wavelength of 465 nm.

Another data set has as its system U-87 MG cells. The data set is described as follows: PET imaging test of radiolabelled compounds in U-87 MG tumour-bearing mice. It counts as in vivo, BALB/c nude mice. How it is done:
Cell information: U-87 MG cells (Wuhan Pricella Biotechnology Co., Ltd., Cat. No.: CL-0238, Lot No.: YBMIL8BQHO); Culture conditions: U-87 MG cell specific medium (MEM + 10% FBS + 1% P/S); Number of passages: 6-9;
Germline: BALB/c nude mice; age: 4-5 weeks old; Body weight: 15-22 g;
A sufficient quantity of U-87 MG cells was prepared and inoculated into the posterior position of the right forelimb of […] mice in an inoculation volume of 100 µL, containing 50% Matrigel and 4 × 10^6 cells.
The workbench surface was wiped with 75% medical alcohol and covered with a disposable sterile tablecloth. 0.5 mL insulin syringes, alcohol swabs, cotton swabs and a marking pen were prepared in the injection room. The mice were placed in a mouse restrainer, and the tails of the mice were disinfected with alcohol swabs. 0.2-0.5 mL of the formulated test sample was injected into each mouse via the tail vein, with the time of each injection, the activity of the syringe and the activity of the empty syringe recorded. Tumour-bearing mice were anesthetized with isoflurane, then placed in a prone position on small animal PET beds and fixed. PET static image acquisition was performed for 10 min at 0.5 h, 1 h, 2 h and 4 h after administration; a whole-body CT scan was performed before each static scan to obtain distribution images of the labelled compound throughout the body of tumour-bearing mice. PET images at different time points after administration were obtained for each experimental animal. Major organs were selected and delineated, specifically including: parts such as tumour, muscle, bone, lung, brain, liver and kidney. The radioactive accumulation and clearance of the labelled compounds in tumours and non-target tissues of tumour-bearing mice were observed.
Using the same experimental method as in Example 2, the ratio of radioactive accumulation of the labelled compound ^18F-FAPI-42 in tumours to non-target tissues in tumour-bearing mice was observed. Table 4.1 Ratios of 18F-FAPI-42 in tumours to non-target organs (tissues)

As for `N#C[C@@H]1CC(F)(F)CN1C(=O)CNC(=O)c1ccnc2ccc(NC(=O)C3CCC4(CC3)CN(C(=O)CN3CCN(CC(=O)O)CCN(CC(=O)O)CCN(CC(=O)O)CC3)CCO4)cc12` (stereo partly drawn) [Compound 3, 6-((6r,9r)-N-(2-(4,7,10-tricarboxymethyl-1,4,7,10-tetraazacyclododecan-1-yl)acetyl)-1-oxa-4-azaspiro[5.5]undecan-9-yl)carboxamido-4-((S)-2-(2-cyano-4,4-difluoropyrrolidin-1-yl)-2-oxoethyl)carbamoylquinoline], 570 pM corresponded to half-maximal inhibition at FAPα enzyme (IC50). On FAPα enzyme (100 nM compound), the “Inhibition rate 100 nM” value worked out at 84.70%.

Consider `N#C[C@@H]1CC(F)(F)CN1C(=O)CNC(=O)c1ccnc2ccc(OCCCN3CCN(C(=O)CN4CCN(CC(=O)[O-])CCN(CC(=O)[O-])CCN(CC(=O)[O-])CC4)CC3)cc12.[68Ga+3]` [^68Ga-FAPI-04], for which, in the data set with U-87 MG cells (0.5 h), the “Ratio Tumour/brain” value came to 6.36, the “Ratio Tumour/gallbladder” value turned out to be 4.89, the “Ratio Tumour/kidney” value came out at 3.35 and the “Ratio Tumour/liver” value is reported as 4.79. In addition, in the data set with U-87 MG cells (0.5 h), the “Ratio Tumour/lung” value is 4.73, the “Ratio Tumour/muscle” value is 15.38 and the “Ratio Tumour/shoulder joint” value came to 2.62. In the data set on U-87 MG cells (0.5 h after administration), the “Uptake Brain” value worked out at 1.16 ± 0.28 % ID/g, the “Uptake Gallbladder” value is given as 1.51 ± 0.18 % ID/g, the “Uptake Kidney” value amounted to 2.20 ± 0.10 % ID/g and the “Uptake Liver” value came to 1.54 ± 0.23 % ID/g. Moreover, in the data set with U-87 MG cells (0.5 h after administration), the “Uptake Lung” value is on record as 1.56 ± 0.45 % ID/g, the “Uptake Muscle” value amounted to 0.48 ± 0.39 % ID/g, the “Uptake Shoulder joint” value is 2.82 ± 0.57 % ID/g and the “Uptake Tumour (max)” value came to 13.17 ± 3.28 % ID/g. Further, in the data set with U-87 MG cells (0.5 h after administration), the “Uptake Tumour (mean)” value was determined as 7.38 ± 1.41 % ID/g. In the data set with U-87 MG cells (1.0 h), the “Ratio Tumour/brain” value was determined as 9.13, the “Ratio Tumour/gallbladder” value is listed as 5.46, the “Ratio Tumour/kidney” value is recorded as 3.42 and the “Ratio Tumour/liver” value was 5.76. In the data set on U-87 MG cells (1.0 h), the “Ratio Tumour/lung” value is given as 5.81, the “Ratio Tumour/muscle” value turned out to be 13.89 and the “Ratio Tumour/shoulder joint” value is 2.72. For the same compound, in the data set on U-87 MG cells (1 h after administration), the “Uptake Brain” value came to 0.70 ± 0.09 % ID/g, the “Uptake Gallbladder” value came out at 1.17 ± 0.36 % ID/g, the “Uptake Kidney” value is given as 1.87 ± 0.20 % ID/g and the “Uptake Liver” value was found to be 1.11 ± 0.31 % ID/g. Also, in the data set on U-87 MG cells (1 h after administration), the “Uptake Lung” value was 1.10 ± 0.12 % ID/g, the “Uptake Muscle” value amounted to 0.46 ± 0.10 % ID/g, the “Uptake Shoulder joint” value amounted to 2.35 ± 0.44 % ID/g and the “Uptake Tumour (max)” value is listed as 10.98 ± 2.02 % ID/g. Further, the “Uptake Tumour (mean)” value in the data set with U-87 MG cells (1 h after administration) is 6.39 ± 0.92 % ID/g. In the data set with U-87 MG cells (2.0 h), the “Ratio Tumour/brain” value stood at 8.95, the “Ratio Tumour/gallbladder” value is listed as 5.34, the “Ratio Tumour/kidney” value is recorded as 3.42 and the “Ratio Tumour/liver” value worked out at 5.71. Also, in the data set on U-87 MG cells (2.0 h), the “Ratio Tumour/lung” value was 5.71, the “Ratio Tumour/muscle” value is 10.21 and the “Ratio Tumour/shoulder joint” value is 2.77. In addition, in the data set on U-87 MG cells (2 h after administration), the “Uptake Brain” value is reported as 0.65 ± 0.21 % ID/g, the “Uptake Gallbladder” value is reported as 1.09 ± 0.36 % ID/g, the “Uptake Kidney” value is given as 1.70 ± 0.17 % ID/g and the “Uptake Liver” value came to 1.02 ± 0.23 % ID/g. Besides, in the data set with U-87 MG cells (2 h after administration), the “Uptake Lung” value worked out at 1.02 ± 0.21 % ID/g, the “Uptake Muscle” value came out at 0.57 ± 0.27 % ID/g, the “Uptake Shoulder joint” value turned out to be 2.10 ± 0.36 % ID/g and the “Uptake Tumour (max)” value is on record as 10.38 ± 2.02 % ID/g. In the data set with U-87 MG cells (2 h after administration), the “Uptake Tumour (mean)” value is given as 5.82 ± 1.01 % ID/g. Further, in the data set with U-87 MG cells (4.0 h), the “Ratio Tumour/brain” value is 8.20, the “Ratio Tumour/gallbladder” value came to 4.75, the “Ratio Tumour/kidney” value is given as 3.34 and the “Ratio Tumour/liver” value is 4.47. In the data set on U-87 MG cells (4.0 h), the “Ratio Tumour/lung” value amounted to 5.43, the “Ratio Tumour/muscle” value is listed as 10.74 and the “Ratio Tumour/shoulder joint” value is 2.59. Also, in the data set with U-87 MG cells (4 h after administration), the “Uptake Brain” value is 0.55 ± 0.17 % ID/g, the “Uptake Gallbladder” value stood at 0.95 ± 0.46 % ID/g, the “Uptake Kidney” value is listed as 1.35 ± 0.23 % ID/g and the “Uptake Liver” value amounted to 1.01 ± 0.29 % ID/g. For the same compound, in the data set on U-87 MG cells (4 h after administration), the “Uptake Lung” value came out at 0.83 ± 0.20 % ID/g, the “Uptake Muscle” value is 0.42 ± 0.10 % ID/g, the “Uptake Shoulder joint” value was 1.74 ± 0.42 % ID/g and the “Uptake Tumour (max)” value came to 12.40 ± 0.85 % ID/g. Also, in the data set on U-87 MG cells (4 h after administration), the “Uptake Tumour (mean)” value amounted to 4.51 ± 0.28 % ID/g.

In turn, `N#C[C@@H]1CC(F)(F)CN1C(=O)CNC(=O)c1ccnc2ccc(NC(=O)[C@H]3CC[C@H](CNC(=O)CN4CCN(CC(=O)O)CCN(CC(=O)O)CCN(CC(=O)O)CC4)CC3)cc12` [Compound 1, 6-(trans-4-(((2-(4,7,10-tricarboxymethyl-1,4,7,10-tetraazacyclododecan-1-yl)acetyl)amino)methyl)cyclohexan-1-yl)carboxamido-4-((S)-2-(2-cyano-4,4-difluoropyrrolidin-1-yl)-2-oxoethyl)carbamoylquinoline] registered an IC50 at FAPα enzyme of 720 pM. On FAPα enzyme (100 nM compound), the inhibition at 0.1 µM was 84.1%.

In the case of `N#C[C@@H]1CC(F)(F)CN1C(=O)CNC(=O)c1ccnc2ccc(NC(=O)[C@H]3CC[C@H](CNC(=O)CN4CCN(CC(=O)O)CCN(CC(=O)O)CC4)CC3)cc12` (relative stereo) [Compound 2, 6-(trans-4-(((2-(4,7-dicarboxymethyl-1,4,7-triazacyclononan-1-yl)acetyl)amino)methyl)cyclohexan-1-yl)carboxamido-4-((S)-2-(2-cyano-4,4-difluoropyrrolidin-1-yl)-2-oxoethyl)carbamoylquinoline], the “IC50 value against FAPα enzyme, times that of the positive drug FAPI-04” value at FAPα enzyme is 0.71 times.

On to `N#C[C@@H]1CC(F)(F)CN1C(=O)CNC(=O)c1ccnc2ccc(OCCCN3CCN(C(=O)CN4CCN5CCN(CC4)CC(=O)[O][Al]([18F])[O]C(=O)C5)CC3)cc12` [^18F-FAPI-42], for which the “Ratio Tumour/gallbladder” value worked out at 1.21 with U-87 MG cells (0.5 h), 1.42 with U-87 MG cells (1.5 h) and 3.15 with U-87 MG cells (3.0 h). In addition, the “Ratio Tumour/intestine” value is recorded as 3.14 with U-87 MG cells (0.5 h), 1.28 in the data set with U-87 MG cells (1.5 h) and 1.19 with U-87 MG cells (3.0 h).

As for `N#C[C@@H]1CC(F)(F)CN1C(=O)CNC(=O)c1ccnc2ccc(OCCCN3CCN(C(=O)CN4CCN(CC(=O)O)CCN(CC(=O)O)CC4)CC3)cc12` [FAP-42], the “IC50 value against FAPα enzyme, times that of the positive drug FAPI-04” value against FAPα enzyme is listed as 2.27 times.

Consider `N#C[C@@H]1CC(F)(F)CN1C(=O)CNC(=O)c1ccnc2ccc(OCCCN3CCN(C(=O)CN4CCN(CC(=O)O)CCN(CC(=O)O)CCN(CC(=O)O)CC4)CC3)cc12` [FAPI-04], for which the inhibition at 0.1 µM at FAPα enzyme (100 nM compound) was 92.3%.
